# Assay results from patent US20230286956A1 (DUKSUNG WOMEN'S UNIVERSITY INDUSTRY-ACADEMIC COOPERATION …, priority 2020, published 2023).
# Test system: wild-type red mold strain GZ3639
# Assay: Inhibition of spore germination / reactive oxygen species generation through NOX enzyme inhibition in red mold
# Format: cell-based
# Settings: 24 h, read-out: IC50 (µM), compound concentration at which the spore germination inhibition rate was 50%
# Protocol: When NADPH oxidase (NOX), which is involved in the generation of reactive oxygen species in red mold, is inhibited, normal mycelial growth is inhibited, abnormal form of monocyclic conidia is formed, and germination is inhibited. The abnormal phenotype caused by the reduction of reactive oxygen species in red mold can be easily observed under an optical microscope. Through this, the ability to inhibit generation of reactive oxygen species through NOX inhibition was evaluated.
# Specifically, for the evaluation of compound activity, 0.1 mM of the compound was added to a minimum medium (MM20) spore suspension diluted to ⅕. Spores ([…]) of wild-type red mold strain GZ3639 were inoculated into the medium and cultured at 25° C. for 24 h, followed by microscopic observation. Compounds having a germination inhibition rate and microcycle conidiation to be 50% or more of those in normal germination were selected, and their activities were evaluated at concentrations of 50 µM, 25 µM, and 10 µM. At this time, the activity of substances having a germination inhibition rate of 95% at 10 µM was further evaluated at concentrations of 5 µM, 1 µM, 0.5 µM, and 0.1 µM. Based on the result of this evaluation, the compound concentration (inhibitory concentration 50%, IC50) at which the spore germination inhibition rate was 50% was determined.
row,SMILES,IC50 [µM]
1,"CN1C(=[Se])N(c2ccccc2)C(=O)/C1=C\c1ccc(N(C)C)cc1 [Compound 3, 5-(4-(dimethylamino)benzylidene)-1-methyl-3-phenyl-2-selenoxoimidazolidine-4-on]",26
2,"CN1C(=[Se])N(c2ccccc2)C(=O)/C1=C\c1ccc(N2CCCC2)cc1 [Compound 7, 1-methyl-3-phenyl-5-(4-pyrrolidine-1-yl)benzylidene-2-selenoxoimidazolidine-4-on]",16
3,"CN1C(=[Se])N(c2ccccc2)C(=O)/C1=C\c1cccc(O)c1 [Compound 8, 5-(3-hydroxybenzylidene)-1-methyl-3-phenyl-2-selenoxoimidazolidine-4-on]",41
4,"CN1C(=[Se])N(c2ccccc2)C(=O)/C1=C\c1cccnc1 [Compound 9, 1-methyl-3-phenyl-5-(pyridine-3-ylmethylene)-2-selenoxoimidazolidine-4-on]",37
5,"Cc1ccc(N2C(=O)/C(=C\c3cccc(O)c3O)N(C)C2=[Se])cc1 [Compound 11, 5-(2,3-dihydroxybenzylidene)-1-methyl-3-(4-tolyl)-2-selenoxoimidazolidine-4-on]",46
6,"Cc1ccc(N2C(=O)/C(=C\c3ccc(Br)cc3)N(C)C2=[Se])cc1 [Compound 16, 5-(4-bromobenzylidene)-1-methyl-2-selenoxo-3-(4-tolyl)imidazolidine-4-on]",46
7,"Cc1ccc(N2C(=O)/C(=C\c3ccc(N4CCCC4)cc3)N(C)C2=[Se])cc1 [Compound 17, 1-methyl-5-(4-pyrrolidine-1-yl)benzylidene-2-selenoxo-3-(4-tolyl)imidazolidine-4-on]",11
8,"Cc1ccc(N2C(=O)/C(=C\c3ccc(O)cc3)N(C)C2=[Se])cc1 [Compound 18, 5-(4-hydroxybenzylidene)-1-methyl-2-selenoxo-3-(4-tolyl)imidazolidine-4-on]",13
9,"Cc1ccc(N2C(=O)/C(=C\c3cccnc3)N(C)C2=[Se])cc1 [Compound 19, 1-methyl-5-(pyridine-3-ylmethylene)-2-selenoxo-3-(4-tolyl)imidazolidine-4-on]",41
10,"Cc1ccc(N2C(=O)/C(=C\c3ccc(NCCN4CCOCC4)cc3)N(C)C2=[Se])cc1 [Compound 23, 1-methyl-5-(4-((2-morpholinoethyl)amino)benzylidene)-2-selenoxo-3-(4-tolyl)imidazolidine-4-on]",5.2
11,"CCc1ccc(N2C(=O)/C(=C\c3ccc(O)cc3O)N(C)C2=[Se])cc1 [Compound 24, 5-(2,4-dihydroxybenzylidene)-3-(4-ethylphenyl)-1-methyl-2-selenoxoimidazolidine-4-on]",14
12,"CCc1ccc(N2C(=O)/C(=C\c3ccc(N4CCCCC4)cc3)N(C)C2=[Se])cc1 [Compound 28, 3-(4-ethylphenyl)-1-methyl-5-(4-(piperidine-1-yl)benzylidene)-2-selenoxoimidazolidine-4-on]",11
13,"CCc1ccc(N2C(=O)/C(=C\c3ccc(Br)cc3)N(C)C2=[Se])cc1 [Compound 29, 5-(4-bromobenzylidene)-3-(4-ethylphenyl)-1-methyl-2-selenoxoimidazolidine-4-on]",11
14,"CCc1ccc(N2C(=O)/C(=C\c3cccnc3)N(C)C2=[Se])cc1 [Compound 31, 3-(4-ethylphenyl)-1-methyl-5-(pyridine-3-ylmethylene)-2-selenoxoimidazolidine-4-on]",30
15,"CN1C(=[Se])N(c2ccc(Cl)cc2)C(=O)/C1=C\c1ccc(O)cc1O [Compound 35, 3-(4-chlorophenyl)-5-(2,4-dihydroxybenzylidene)-1-methyl-2-selenoxoimidazolidine-4-on]",31
16,"CN1C(=[Se])N(c2ccc(Cl)cc2)C(=O)/C1=C\c1cccc(O)c1O [Compound 36, 3-(4-chlorophenyl)-5-(2,3-dihydroxybenzylidene)-1-methyl-2-selenoxoimidazolidine-4-on]",46

row,SMILES,IC50 [µM]
1,"CN1C(=[Se])N(c2ccc(Cl)cc2)C(=O)/C1=C\c1ccc(O)c(O)c1 [Compound 37, 3-(4-chlorophenyl)-5-(3,4-dihydroxybenzylidene)-1-methyl-2-selenoxoimidazolidine-4-on]",20
2,"CN1C(=[Se])N(c2ccc(Cl)cc2)C(=O)/C1=C\c1cc(O)cc(O)c1 [Compound 38, 3-(4-chlorophenyl)-5-(3,5-dihydroxybenzylidene)-1-methyl-2-selenoxoimidazolidine-4-on]",56
3,"CN1C(=[Se])N(c2ccc(Cl)cc2)C(=O)/C1=C\c1cccnc1 [Compound 39, 3-(4-chlorophenyl)-1-methyl-5-(pyridine-3-ylmethylene)-2-selenoxoimidazolidine-4-on]",27
4,"CN1C(=[Se])N(c2cccc(Cl)c2)C(=O)/C1=C\c1cccc(O)c1O [Compound 40, 3-(3-chlorophenyl)-5-(2,3-dihydroxybenzylidene)-1-methyl-2-selenoxoimidazolidine-4-on]",42
5,"CN1C(=[Se])N(CCc2ccccc2)C(=O)/C1=C\c1ccc(O)cc1O [Compound 41, 5-(2,4-dihydroxybenzylidene)-1-methyl-3-phenethyl-2-selenoxoimidazolidine-4-on]",9.8
6,"CN1C(=[Se])N(CCc2ccccc2)C(=O)/C1=C\c1ccc(N(C)C)cc1 [Compound 43, 5-(4-(dimethylamino)benzylidene)-1-methyl-3-phenethyl-2-selenoxoimidazolidine-4-on]",23
7,"CN1C(=[Se])N(CCc2ccccc2)C(=O)/C1=C\c1ccc(N2CCOCC2)cc1 [Compound 52, 1-methyl-5-(4-morpholinobenzylidene)-3-phenethyl-2-selenoxoimidazolidine-4-on]",3.5
8,"CN1C(=[Se])N(C2CCCCC2)C(=O)/C1=C\c1ccc(O)cc1O [Compound 55, 3-cyclohexyl-5-(2,4-dihydroxybenzylidene)-1-methyl-2-selenoxoimidazolidine-4-on]",1
9,"CN1C(=[Se])N(C2CCCCC2)C(=O)/C1=C\c1cccc(O)c1O [Compound 56, 3-cyclohexyl-5-(2,3-dihydroxybenzylidene)-1-methyl-2-selenoxoimidazolidine-4-on]",18
10,CN1C(=[Se])N(C2CCCCC2)C(=O)/C1=C\c1ccc(N(C)C)cc1 [Compound 57],46
11,"CN1C(=[Se])N(C2CCCCC2)C(=O)/C1=C\c1cc(O)cc(O)c1 [Compound 58, 3-cyclohexyl-5-(3,5-dihydroxybenzylidene)-1-methyl-2-selenoxoimidazolidine-4-on]",18
12,"CCCCCCN1C(=O)/C(=C\c2cccc(O)c2O)N(C)C1=[Se] [Compound 60, 5-(2,3-dihydroxybenzylidene)-3-hexyl-1-methyl-2-selenoxoimidazolidine-4-on]",6
13,"CCCCCCN1C(=O)/C(=C\c2ccc(N(C)C)cc2)N(C)C1=[Se] [Compound 61, 5-(4-(dimethylamino)benzylidene)-3-hexyl-1-methyl-2-selenoxoimidazolidine-4-on]",33
14,"CCCCCCN1C(=O)/C(=C\c2cc(O)cc(O)c2)N(C)C1=[Se] [Compound 62, 5-(3,5-dihydroxybenzylidene)-3-hexyl-1-methyl-2-selenoxoimidazolidine-4-on]",5
15,"CCCCCCN1C(=O)/C(=C\c2ccc(N3CCOCC3)cc2)N(C)C1=[Se] [Compound 63, 3-hexyl-1-methyl-5-(4-morpholinobenzylidene)-2-selenoxoimidazolidine-4-on]",0.5
